Assay results reported in patent publication US12202849B2, “Crystalline forms of tenofovir alafenamide” (Gilead Sciences, Inc., priority 2017, dated 2025).

Details: deionized water, approximately 22° C., room temperature
Description: In a vial that contains pre-weighed amount of solid, deionized water was added in small increments at approximately 22° C. The solid/liquid mixture was agitated by a vortex mixer and held at room temperature. Continued to add deionized water and repeated the mixing until the solid was fully dissolved.

tenofovir alafenamide hemifumarate [TAF Hemifumarate]
Solubility: 20 mg/mL
